For 26 molecules, IC50 results are on record in US11267811B2, “Small molecule inhibitors of galectin-3” (BRISTOL-MYERS SQUIBB COMPANY, priority 2017, dated 2022).

In one assay the target is His-tagged recombinant human Gal-3 (hGal-3) (Homo sapiens (Human), UniProt P17931). In words: Gal-3 HTRF assay (His-tagged hGal-3 binding to B-ASF).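 Further: compounds preincubated 30 min with hGal-3, then 1 h with B-ASF, detection via terbium anti-His antibody and streptavidin d2. Control with B-ASF counts as full signal, omitting B-ASF as background.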 As to conditions: HTRF, hGal-3 15 nM, B-ASF 15 nM; read-out: hGal-3 IC50. (In general: TR-FRET usually uses a lanthanide donor and a delayed reading to cut background.)
Chain of His-tagged recombinant human Gal-3 (hGal-3) (P17931 whole entry): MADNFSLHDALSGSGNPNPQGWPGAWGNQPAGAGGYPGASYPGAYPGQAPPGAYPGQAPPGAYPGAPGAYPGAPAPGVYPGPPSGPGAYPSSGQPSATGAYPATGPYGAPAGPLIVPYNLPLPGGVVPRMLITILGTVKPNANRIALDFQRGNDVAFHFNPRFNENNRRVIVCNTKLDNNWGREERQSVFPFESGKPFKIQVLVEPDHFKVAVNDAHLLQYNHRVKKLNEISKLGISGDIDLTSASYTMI
For the molecule `OC[C@H]1O[C@@H](c2nncn2-c2ccc(N3CCNCC3)c(Cl)c2)[C@H](O)[C@@H](n2cc(-c3cc(F)c(F)c(F)c3)nn2)[C@H]1O` [Example 141, (2S,3R,4R,5R,6R)-2-(4-(3-chloro-4-(piperazin-1-yl)phenyl)-4H-1,2,4-triazol-3-yl)-6-(hydroxymethyl)-4-(4-(3,4,5-trifluorophenyl)-1H-1,2,3-triazol-1-yl)tetrahydro-2H-pyran-3,5-diol], the IC50 (usually the concentration that gives 50% inhibition) is 130 nM.
Same read-out and setting: in the case of `OC[C@H]1O[C@@H](c2nncn2Cc2nccs2)[C@H](O)[C@@H](n2cc(-c3cc(F)c(F)c(F)c3)nn2)[C@H]1O` [Example 158] it was 2150 nM; in that of `OC[C@H]1O[C@@H](c2nncn2-c2ccc3ccncc3c2)[C@H](O)[C@@H](n2cc(-c3cc(F)c(F)c(F)c3)nn2)[C@H]1O` [Example 126], 270 nM; in that of `OC[C@H]1O[C@@H](c2ncnn2-c2ccc(Cl)cc2)[C@H](O)[C@@H](n2cc(-c3cc(F)c(F)c(F)c3)nn2)[C@H]1O` [Example 43], 610 nM.
Consider `Cc1nc([C@@H]2O[C@H](CO)[C@H](O)[C@H](n3cc(-c4cc(F)c(F)c(F)c4)nn3)[C@H]2O)n(-c2cc(Cl)ccc2C#N)n1` [Example 64], for which the 50% inhibitory concentration (IC50) was found to be 90 nM.
The same measure, in the same setting: with `OC[C@H]1O[C@@H](c2ncnn2-c2cc(Cl)cc(Cl)c2)[C@H](O)[C@@H](n2cc(-c3cc(F)c(F)c(F)c3)nn2)[C@H]1O` [Example 41] the figure was 110 nM; with `OC[C@H]1O[C@@H](c2nncn2-c2ccccc2Cl)[C@H](O)[C@@H](n2cc(-c3cc(F)c(F)c(F)c3)nn2)[C@H]1O` [Example 89], 460 nM.
On the same count and under the same terms, in the case of `OC[C@H]1O[C@@H](c2ncnn2Cc2ccccc2)[C@H](O)[C@@H](n2cc(-c3cc(F)c(F)c(F)c3)nn2)[C@H]1O` [Example 28] it was 1470 nM; in that of `Cc1nc([C@H]2C[C@@H](n3cc(-c4cc(F)c(F)c(F)c4)nn3)[C@@H](O)[C@@H](CO)O2)n(-c2cc(Cl)ccc2C)n1` [Example 184], 90 nM.
In the case of `OC[C@H]1O[C@@H](c2ncnn2-c2ccc3nc(N4CCOCC4)sc3c2)[C@H](O)[C@@H](n2cc(-c3cc(F)c(F)c(F)c3)nn2)[C@H]1O` [Example 50], the IC50 was found to be 120 nM.
With `CS(=O)(=O)Nc1cccc(-n2cnnc2[C@@H]2O[C@H](CO)[C@H](O)[C@H](n3cc(-c4cc(F)c(F)c(F)c4)nn3)[C@H]2O)c1` [Example 113], the IC50 is 480 nM.
The same measure, in the same setting: with `CSc1nnc([C@@H]2O[C@H](CO)[C@H](O)[C@H](n3cc(-c4cc(F)c(F)c(F)c4)nn3)[C@H]2O)n1-c1ccc(Cl)c(Cl)c1` [Example 278, (2S,3R,4R,5R,6R)-2-(4-(3,4-dichlorophenyl)-5-(methylthio)-4H-1,2,4-triazol-3-yl)-6-(hydroxymethyl)-4-(4-(3,4,5-trifluorophenyl)-1H-1,2,3-triazol-1-yl)tetrahydro-2H-pyran-3,5-diol] the figure was 120 nM; with `OC[C@H]1O[C@@H](c2nncn2Cc2ccc(Cl)c(Cl)c2)[C@H](O)[C@@H](n2cc(-c3cc(F)c(F)c(F)c3)nn2)[C@H]1O` [Example 119], 2790 nM.
On the same count and under the same terms, in the case of `OC[C@H]1O[C@@H](c2nncn2-c2cc(Cl)ccc2Cl)[C@H](O)[C@@H](n2cc(-c3cc(F)c(Cl)c(F)c3)nn2)[C@H]1O` [Example 326, (2S,3R,4R,5R,6R)-4-(4-(4-chloro-3,5-difluorophenyl)-1H-1,2,3-triazol-1-yl)-2-(4-(2,5-dichlorophenyl)-4H-1,2,4-triazol-3-yl)-6-(hydroxymethyl)tetrahydro-2H-py ran-3,5-diol] it was 44 nM; in that of `Cc1nc2ccc(-n3c(C)nnc3[C@H]3C[C@@H](n4cc(-c5cc(F)c(F)c(F)c5)nn4)[C@@H](O)[C@@H](CO)O3)cc2s1` [Example 280, (2R,3R,4R,6R)-2-(hydroxymethyl)-6-(5-methyl-4-(2-methylbenzo[d]thiazol-6-yl)-4H-1,2,4-triazol-3-yl)-4-(4-(3,4,5-trifluorophenyl)-1H-1,2,3-triazol-1-yl)tetrahydro-2H-pyran-3-ol], 70 nM; in that of `CO[C@@H]1[C@@H](n2cc(-c3cc(F)c(Cl)c(F)c3)nn2)[C@@H](O)[C@@H](CO)O[C@H]1c1nc(C)nn1-c1ccc2ncsc2c1` [Example A5, (2R,3R,4S,5R,6S)-6-(1-(Benzo[d]thiazol-6-yl)-3-methyl-1H-1,2,4-triazol-5-yl)-4-(4-(4-chloro-3,5-difluorophenyl)-1H-1,2,3-triazol-1-yl)-2-(hydroxymethyl)-5-methoxytetrahydro-2H-pyran-3-ol], 20 nM.

Still in this assay, the particulars now being: read-out: hGal3 IC50.
On to `Cc1nc2ccc(-n3c(C)nnc3[C@@H]3O[C@H](CO)[C@H](O)[C@H](n4cc(-c5ccc(Cl)c(F)c5)nn4)[C@H]3O)cc2s1` [Example 305], for which the IC50 was 31 nM.
The same measure, in the same setting: with `Cc1nc2ccc(-n3ncnc3[C@@H]3O[C@H](CO)[C@H](O)[C@H](n4cc(-c5ccc(N)c(F)c5)nn4)[C@H]3O)cc2s1` [Example 202] the figure was 440 nM; with `OC[C@H]1O[C@@H](c2nncn2-c2cc(Cl)ccc2C(F)(F)F)[C@H](O)[C@@H](n2cc(-c3ccc(Cl)c(F)c3)nn2)[C@H]1O` [Example 309], 20 nM; with `Cc1nnc([C@@H]2O[C@H](CO)[C@H](O)[C@H](n3cc(-c4cc(F)c(Br)c(F)c4)nn3)[C@H]2O)n1-c1cc(Cl)cc2cccnc12` [Example 318], 11 nM.
Same read-out and setting: in the case of `Cn1nccc1[C@@H]1O[C@H](CO)[C@H](O)[C@H](n2cc(-c3cc(F)c(F)c(F)c3)nn2)[C@H]1O` [Ex 286] it was 10000 nM.

The assay is the same for the next values; noted with them: read-out: hGal IC50.
As to `Cc1nc([C@@H]2O[C@H](CO)[C@H](O)[C@H](n3cc(-c4cc(F)c(Cl)c(Cl)c4)nn3)[C@H]2O)n(-c2ccc3ncsc3c2)n1` [Example A24], the IC50 stood at 34 nM.
Same read-out and setting: in the case of `Cc1nc([C@@H]2O[C@H](CO)[C@H](O)[C@H](n3cc(-c4cc(F)c(Cl)c(Cl)c4)nn3)[C@H]2O)n(-c2cc(Cl)ccc2C(F)(F)F)n1` [Example A55] it was 20 nM.
Take `Cc1nc([C@@H]2O[C@H](CO)[C@H](O)[C@H](n3cc(-c4ccc(Br)c(F)c4)nn3)[C@H]2O)n(-c2cc(Cl)cc3cccnc23)n1` [Example A12]: the IC50 was found to be 46 nM.
Same read-out and setting: with `Cc1nc([C@@H]2O[C@H](CO)[C@H](O)[C@H](n3cc(-c4cc(F)c(Cl)c(Cl)c4)nn3)[C@H]2O)n(-c2ccc3nc(C)sc3c2)n1` [Example A25] the figure was 45 nM; with `COc1cc(-c2cn([C@H]3[C@@H](O)[C@@H](CO)O[C@@H](c4nc(C)nn4-c4cc(Cl)ccc4C(F)(F)F)[C@@H]3O)nn2)ccc1Cl` [Example A79], 40 nM.
